Data on 14 molecules can be found in patent US20090068653A1, “BIOCHEMICAL AND GENETIC ANALYSIS FOR PREDICTION OF BREAST CANCER RISK” (priority 2006, published 2009).

For data set [1] the following is noted: cited from earlier work.
The subject of a further data set is renal cancer. Particulars: hamster, in vivo; cited from earlier work.
Another data set has as its system renal DNA. The following applies: in vivo; cited from earlier work.
For data set [2], the system named is DNA. Particulars: cited from earlier work.
The subject of data set [3] is DNA. The following applies: cited from earlier work. This is another data set of the same source.
Another data set relates to CYP1B1 mRNA. The following applies: primary cultures of normal human epidermal keratinocytes, 24-hour treatment; cited from earlier work.
The conditions of data set [4]: single oral doses; cited from earlier work.
Data set [5] deals with incidence of breast cancer. The following applies: large study of use to prevent and treat osteoporosis; cited from earlier work.
The test system of a further data set is estrogen receptors. Particulars: preclinical data; cited from earlier work.
Data set [6] has as its system rat mammary carcinoma induced by dimethylbenzanthracene (DMBA). The following applies: cited from earlier work.
The conditions of data set [7]: cited from earlier work. This is another data set of the same source.
In another data set the test system is breast cancer incidence. Particulars: women at increased risk of the disease; cited from earlier work.
In the next data set the test system is COMT. The following applies: cited from earlier work.

Counter-ions that a name gives are not always drawn. Like-named read-outs stand apart in the source and are kept apart here.

`O=C(c1ccc(OCCN2CCCCC2)cc1)c1c(-c2ccc(O)cc2)sc2cc(O)ccc12` [Raloxifene HCl, methanone, [6-hydroxy-2-(4-hydroxyphenyl)benzo[b]thien-3-yl]-[4-[2-(1-piperidinyl)ethoxy]phenyl]-hydrochloride]: the solubility in water result in [1] is “very slightly soluble”.
Turning to `C[C@]12CC[C@@H]3c4cc(O)c(O)cc4CC[C@H]3[C@@H]1CC[C@@H]2O` [2-OHE2], in the data set on renal cancer, the “induction of renal cancer” value was “not”. The “levels of oxidized base 8-hydroxy-deoxyguanosine, oxidative DNA damage” value (shortened to “levels … oxidative DNA damage”) with renal DNA is given as “did not cause oxidative DNA damage”. In addition, in the data set on DNA [2], the DNA single-strand breaks result is recorded as “negligible effect”.
As for `C[C@]12CC[C@@H]3c4ccc(O)c(O)c4CC[C@H]3[C@@H]1CCC2=O` [4-OHE1], in the data set on renal cancer, the “induction of renal cancer” value is on record as “induced renal cancer”. Further, in the data set on renal DNA, the “levels … oxidative DNA damage” value is “significantly increased”.
Consider `C[C@]12CC[C@@H]3c4ccc(O)c(O)c4CC[C@H]3[C@@H]1CC[C@@H]2O` [4-OHE2], for which, in the data set on renal cancer, the “induction of renal cancer” value is on record as “induced renal cancer”. Moreover, the “levels … oxidative DNA damage” value in the data set on renal DNA is listed as “significantly increased”. Also, the DNA single-strand breaks result in the data set with DNA [2] is “induced DNA single-strand breaks”.
Turning to `C[C@]12CC[C@@H]3C4=C(CC[C@H]3[C@@H]1CC[C@@H]2O)C(=O)C(=O)C=C4` [E2-3,4Q], the “levels of depurinating DNA adducts” value in the data set with DNA [3] was “two to three orders of magnitude higher”.
`C[C@]12CC[C@@H]3C4=C(CC[C@H]3[C@@H]1CCC2=O)C(=O)C(=O)C=C4` [E1-3,4Q]: the “levels of depurinating DNA adducts” value in the data set with DNA [3] is “two to three orders of magnitude higher”.
For `Clc1cc2c(cc1Cl)Oc1cc(Cl)c(Cl)cc1O2` [TCDD, 2,3,7,8-tetrachlorodibenzo-p-dioxin], the “increase of CYP1B1 mRNA levels” value in the data set with CYP1B1 mRNA was “approximately 100 fold”.
As to `O=C(c1ccc(OCCN2CCCCC2)cc1)c1c(-c2ccc(O)cc2)sc2cc(O)ccc12` [Raloxifene], the apparent oral clearance in data set [4] is listed as 44.1 L/kg per hour. In data set [5], the “incidence of breast cancer” value is given as “reduce the incidence of breast cancer”. The “estrogen receptor action in uterine and breast tissues” value with estrogen receptors was “estrogen antagonist”.
As to `CC/C(=C(\c1ccccc1)c1ccc(OCCN(C)C)cc1)c1ccccc1` [Tamoxifen, reference compound], in [6] (rat), the “induction of rat mammary carcinoma induced by DMBA” value is reported as “inhibits”. Also, the “regression of DMBA-induced tumors in situ” value in data set [6] (rats) is reported as “causes the regression”. Also, the “average steady-state plasma concentration” value is listed as 120 ng/mL in data set [7] (10 mg tamoxifen twice daily for 3 months, patients) and 122 ng/mL in data set [7] (20 mg tamoxifen once daily for 3 months). In data set [7] (in vivo), the “time to steady state concentrations after initiation of therapy” value was “about 4 weeks”. Besides, the “average peak plasma concentration” value in data set [7] (single oral dose of 20 mg tamoxifen) is listed as 40 ng/mL. The “time of peak plasma concentration after dosing” value in [7] (single oral dose of 20 mg) is “approximately 5 hours”. Moreover, the “reduction of breast cancer incidence” value in the data set on breast cancer incidence is recorded as 49%.

B1: 461Thr-462Ile (wt*): purified recombinant wild-type CYP1A1 enzyme (protein, UniProt P04798 1-512, looked up)
Cytochrome P450 1A1: MLFPISMSATEFLLASVIFCLVFWVIRASRPQVPKGLKNPPGPWGWPLIGHMLTLGKNPHLALSRMSQQYGDVLQIRIGSTPVVVLSGLDTIRQALVRQGDDFKGRPDLYTFTLISNGQSMSFSPDSGPVWAARRRLAQNGLKSFSIASDPASSTSCYLEEHVSKEAEVLISTLQELMAGPGHFNPYRYVVVSVTNVICAICFGRRYDHNHQELLSLVNLNNNFGEVVGSGNPADFIPILRYLPNPSLNAFKDLNEKFYSFMQKMVKEHYKTFEKGHIRDITDSLIEHCQEKQLDENANVQLSDEKIINIVLDLFGAGFDTVTTAISWSLMYLVMNPRVQRKIQEELDTVIGRSRRPRLSDRSHLPYMEAFILETFRHSSFVPFTIPHSTTRDTSLKGFYIPKGRCVFVNQWQINHDQKLWVNPSEFLPERFLTPDGAIDKVLSEKVIIFGMGKRKCIGETIARWEVFLFLAILLQRVEFSVPLGVKVDMTPIYGLTMKHACCEHFQMQLRS
Usually Km stands for the substrate concentration at which the rate is half of its maximum. On to B1, for which the Km with CYP1A1 came out at 17 µM.

B2: 461Thr-462Val: purified recombinant CYP1A1 variant 462Ile→Val (protein, UniProt P04798 1-512, looked up, variant I462V)
Cytochrome P450 1A1: MLFPISMSATEFLLASVIFCLVFWVIRASRPQVPKGLKNPPGPWGWPLIGHMLTLGKNPHLALSRMSQQYGDVLQIRIGSTPVVVLSGLDTIRQALVRQGDDFKGRPDLYTFTLISNGQSMSFSPDSGPVWAARRRLAQNGLKSFSIASDPASSTSCYLEEHVSKEAEVLISTLQELMAGPGHFNPYRYVVVSVTNVICAICFGRRYDHNHQELLSLVNLNNNFGEVVGSGNPADFIPILRYLPNPSLNAFKDLNEKFYSFMQKMVKEHYKTFEKGHIRDITDSLIEHCQEKQLDENANVQLSDEKIINIVLDLFGAGFDTVTTAISWSLMYLVMNPRVQRKIQEELDTVIGRSRRPRLSDRSHLPYMEAFILETFRHSSFVPFTIPHSTTRDTSLKGFYIPKGRCVFVNQWQINHDQKLWVNPSEFLPERFLTPDGAIDKVLSEKVIIFGMGKRKCIGETVARWEVFLFLAILLQRVEFSVPLGVKVDMTPIYGLTMKHACCEHFQMQLRS
Consider B2, for which the Michaelis constant (Km) in the data set with CYP1A1 was found to be 18 µM.

B3: 461Asn-462Ile: purified recombinant CYP1A1 variant 461Thr→Asn (protein, UniProt P04798 1-512, looked up, variant T461N)
Cytochrome P450 1A1: MLFPISMSATEFLLASVIFCLVFWVIRASRPQVPKGLKNPPGPWGWPLIGHMLTLGKNPHLALSRMSQQYGDVLQIRIGSTPVVVLSGLDTIRQALVRQGDDFKGRPDLYTFTLISNGQSMSFSPDSGPVWAARRRLAQNGLKSFSIASDPASSTSCYLEEHVSKEAEVLISTLQELMAGPGHFNPYRYVVVSVTNVICAICFGRRYDHNHQELLSLVNLNNNFGEVVGSGNPADFIPILRYLPNPSLNAFKDLNEKFYSFMQKMVKEHYKTFEKGHIRDITDSLIEHCQEKQLDENANVQLSDEKIINIVLDLFGAGFDTVTTAISWSLMYLVMNPRVQRKIQEELDTVIGRSRRPRLSDRSHLPYMEAFILETFRHSSFVPFTIPHSTTRDTSLKGFYIPKGRCVFVNQWQINHDQKLWVNPSEFLPERFLTPDGAIDKVLSEKVIIFGMGKRKCIGENIARWEVFLFLAILLQRVEFSVPLGVKVDMTPIYGLTMKHACCEHFQMQLRS
As for B3, in the data set with CYP1A1, the Michaelis constant (Km) worked out at 23 µM.

B4: 461Asn-462Val: purified recombinant CYP1A1 variant 461Asn-462Val (protein, UniProt P04798 1-512, looked up, variant T461N I462V)
Cytochrome P450 1A1: MLFPISMSATEFLLASVIFCLVFWVIRASRPQVPKGLKNPPGPWGWPLIGHMLTLGKNPHLALSRMSQQYGDVLQIRIGSTPVVVLSGLDTIRQALVRQGDDFKGRPDLYTFTLISNGQSMSFSPDSGPVWAARRRLAQNGLKSFSIASDPASSTSCYLEEHVSKEAEVLISTLQELMAGPGHFNPYRYVVVSVTNVICAICFGRRYDHNHQELLSLVNLNNNFGEVVGSGNPADFIPILRYLPNPSLNAFKDLNEKFYSFMQKMVKEHYKTFEKGHIRDITDSLIEHCQEKQLDENANVQLSDEKIINIVLDLFGAGFDTVTTAISWSLMYLVMNPRVQRKIQEELDTVIGRSRRPRLSDRSHLPYMEAFILETFRHSSFVPFTIPHSTTRDTSLKGFYIPKGRCVFVNQWQINHDQKLWVNPSEFLPERFLTPDGAIDKVLSEKVIIFGMGKRKCIGENVARWEVFLFLAILLQRVEFSVPLGVKVDMTPIYGLTMKHACCEHFQMQLRS
As for B4, the Michaelis constant (Km) with CYP1A1 came to 23 µM.

B5: 108Val (wt): wild-type COMT enzyme (protein, UniProt P21964 1-271, looked up)
Catechol O-methyltransferase: MPEAPPLLLAAVLLGLVLLVVLLLLLRHWGWGLCLIGWNEFILQPIHNLLMGDTKEQRILNHVLQHAEPGNAQSVLEAIDTYCEQKEWAMNVGDKKGKIVDAVIQEHQPSVLLELGAYCGYSAVRMARLLSPGARLITIEINPDCAAITQRMVDFAGVKDKVTLVVGASQDIIPQLKKKYDVDTLDMVFLDHWKDRYLPDTLLLEECGLLRKGTVLLADNVICPGAPDFLAHVRGSSCFECTHYQSFLEYREVVDGLEKAIYKGPGSEAGP
B5: the Km with COMT (reaction 2-OHE2 → 2-MeOE2, COMT) was 117 µM; in the data set with COMT (reaction 2-OHE2 → 2-OH-3-MeOE2, COMT), 51 µM; in the data set on COMT (reaction 4-OHE2 → 4-MeOE2, COMT) it was 24 µM.
